Experimental data: article PMC10301603, “Potent and Selective Benzothiazole-Based Antimitotics with Improved Water Solubility: Design, Synthesis, and Evaluation as Novel Anticancer Agents” (Pharmaceutics, 2023)
Converted amounts (≈) assume the structure as drawn. Read-outs that look alike come from different tables or passages of the source.

Assays:
HeLa cells [1] = tested on: HeLa cells; design: method as in PMID 25970265; conditions: read-out: IC50 cell proliferation of HeLa cells; cited from earlier work
[2] = Aqueous solubility, shake-flask method; format: physicochemical; conditions: pH 7.0 buffer, thermodynamic from solid, shaking flask, buffered media at pH 7.0, mean of three
Procedure: The aqueous solubility of compounds was measured in a Helios Alfa Spectrophotometer. Calibration lines at the maximum wavelength of absorbance were determined for each compound. Then, following the shake-flask method, a suspension of 5 mg of each compound in 500 µL in pH 7.0 buffer was stirred for 72 h at room temperature. The mixture was then filtrated over a […] filter to remove the insoluble fraction. The concentration of the compound in the resulting saturated solution was determined via UV absorbance measurement and interpolation in the calibration line. The aqueous solubility values are given as the average of three independent measurements.

bovine brain tubulin = test: Tubulin polymerization inhibition (turbidimetry); format: biochemical; conditions: for IC50: concentration inhibiting 50% of microtubular protein polymerization in vitro, read-out: TPI IC50
Procedure: Microtubular protein was isolated from calf brain following the modified Shelanski method, based on temperature-dependent assembly/disassembly of tubulin [45]. The protein was stored at −80 °C, and its concentration was determined using the Bradford method before each use. Tubulin polymerization, which occurs when heating a buffered tubulin sample from 4 °C to 37 °C, is accompanied by an increase in the absorbance (at 450 nm) of the sample that was monitored by a Helios α spectrophotometer. […] Then, the temperature was adjusted to 4 °C, and the temperature being shifted to 37 °C allowed for the assembly process of tubulin. The turbidity caused by tubulin polymerization was measured by the increased absorbance at 450 nm. The increase in absorbance obtained for the control sample (without the ligand), which we considered to be 100% tubulin polymerization (0% inhibition), compared with the increase in absorbance determined for the sample containing ligands yielded the degree of tubulin polymerization inhibition (TPI), which is expressed as a percentage value. For the compounds displaying TPI values over 50% at 10 µM, the IC50 value for TPI was calculated. Measurements were performed in triplicate in two independent experiments using microtubular protein from different preparations.

[3] = cited from earlier work
HEK-293 cells = test: Cell growth inhibition assay (MTT), non-tumorigenic cells; format: cell-based, human; conditions: Homo sapiens, HEK293, 72 h after drug exposure, non-tumorigenic cell line
Procedure: (§1) The cell lines were obtained from ATTC (Manassas, VA, USA). HeLa (human cervix epithelioid carcinoma), MCF7 (human breast adenocarcinoma), HepG2 (human hepatocellular carcinoma), U87 MG (human glioblastoma), T98G (human glioblastoma), GL261 (murine glioma), LNCaP (human prostate cancer), PC-3 (human prostate cancer), and HEK-293 (human embryonic kidney) were grown in Dulbecco’s modified Eagle’s medium (DMEM, Gibco, Waltham, MA, USA), supplemented with 10% (v/v) heat-inactivated fetal bovine serum (HIFBS, Sigma-Aldrich, St. Louis, MO, USA)), 2 mM L-glutamine, 100 μg/mL streptomycin, and 100 units/mL penicillin (Gibco, Waltham, MA, USA) at 37 °C in saturated humidity atmosphere containing 95% air and 5% CO2. Cell line HT-29 (human colon carcinoma) was grown in Roswell Park Memorial Institute (RPMI) 1640 medium (Gibco, Whaltman, MA, USA) supplemented with 10% HIFBS, 100 μg/mL streptomycin, and 100 units/mL penicillin (Gibco, Whaltman, MA, USA) at 37 °C in humidified 95% air and 5% CO2 atmosphere. MycoAlert kit (Lonza, Norwest, Australia) was used to routinely check the presence of mycoplasma, and only mycoplasma-free cells were employed in the experiments.
(§2) Cells were plated in 96-well plates (100 µL/well) at the following concentrations: 30,000 cells/mL (HepG2, U87 MG, T98G, C6, LNCaP, PC3, and HT-29 cells) or 15,000 cells/mL (HeLa and MCF-7 cells). Previous experiments were performed to choose the optimal cell concentration (70–80% confluence) and avoid the formation of cell aggregates. Cells were incubated in complete DMEM or RPMI 1640 medium (see above) at 37 °C and 5% CO2 atmosphere for 24 h to allow for cell attachment to the plate. Then, every compound was added (10 µL/well) to a final concentration of 10 µM. Non-treated cells were used as negative controls. The antiproliferative activity of compounds was measured 72 h after the treatments using the MTT reagent (3-[4,5-dimethylthiazol-2-yl]-2,5-diphenyltetrazolium bromide), (MTT Thiazolyl Blue Tetrazolium Bromide, Sigma-Aldrich, St. Louis, MO, USA) dissolved in PBS at 5 mg/mL. Compounds showing antiproliferative effects at 10 µM were selected to determine their IC50 value. For that purpose, compounds were used at different concentrations ranging from 10^−10 to 10^−2 M. Measurements were performed in triplicate, and each experiment was repeated three times. The IC50 value was determined for every compound using Origin software (OriginLab, Washington, USA). To study the sensitivity to MDR efflux pumps of compounds, the IC50 values were determined by following the same procedure but in the presence of verapamil (final concentration of 10 µM).

PC-3 cells = test: Cell growth inhibition assay (MTT); format: cell-based, human; conditions: Homo sapiens, PC-3, 72 h after drug exposure
Procedure: as §1, §2

T98G cells = test: Cell growth inhibition assay (MTT); format: cell-based, human; conditions: Homo sapiens, T98G, 72 h after drug exposure
Procedure: as §1, §2

HepG2 cells = test: Cell growth inhibition assay (MTT); format: cell-based, human; conditions: Homo sapiens, HepG2, 72 h after drug exposure
Procedure: as §1, §2

MCF7 cells = test: Cell growth inhibition assay (MTT); format: cell-based, human; conditions: Homo sapiens, MCF7; MTT, 72 h after drug exposure
Procedure: as §1, §2

U87MG cells = test: Cell growth inhibition assay (MTT); format: cell-based, human; conditions: Homo sapiens, U-87 MG; MTT, 72 h after drug exposure
Procedure: as §1, §2

HeLa cells [4] = test: Cell growth inhibition assay (MTT); format: cell-based, human; conditions: Homo sapiens, HeLa, 72 h after drug exposure
Procedure: as §1, §2

LNCaP cells = test: Cell growth inhibition assay (MTT); format: cell-based, human; conditions: Homo sapiens, LNCaP, 72 h after drug exposure
Procedure: as §1, §2

HT-29 cells [5] = test: Cell growth inhibition assay (MTT); format: cell-based, human; conditions: Homo sapiens, HT-29, 72 h after drug exposure
Procedure: as §1, §2

tumor cell lines = test: Cell growth inhibition assay (MTT), summary statements over several cell lines; format: cell-based; conditions: read-out: antiproliferative IC50
Procedure: as §2

GL261 cells = test: Cell growth inhibition assay (MTT); format: cell-based, murine; conditions: Mus musculus, GL261, 72 h after drug exposure
Procedure: as §1, §2

HT-29 cells [6] = test: Cell growth inhibition (MTT) in the presence of 10 µM verapamil (sensitivity to MDR efflux pumps); format: cell-based, human; conditions: 10 µM verapamil (P-gp/MDR1 inhibitor)
Procedure: as §2

[7] = the rest of the tumor cell lines (other than HeLa, HepG2, MCF7, U87MG)

Row | SMILES | IC50 (bovine brain tubulin) | solubility at 72 h ([2]; pH 7, aqueous buffer) | IC50 (HEK-293 cells) | IC50 (PC-3 cells) | IC50 (T98G cells) | IC50 (HepG2 cells) | IC50 (MCF7 cells) | IC50 (U87MG cells) | IC50 (HeLa cells [4]) | IC50 (LNCaP cells) | IC50 (HT-29 cells [5]) | IC50 (GL261 cells) | IC50 (HT-29 cells [6]) | IC50 (tumor cell lines; HeLa, HepG2, MCF7, and U87MG) | IC50 (tumor cell lines; [7]) | also measured
1 | Cc1cc2nc(/C=C/c3cccnc3)sc2cc1C [MI181, reference compound] | 4.6 µM |  |  |  |  |  |  |  |  |  |  |  |  |  |  | IC50 (HeLa cells [1]): 0.017 µM; solubility at 72 h ([2]; aqueous buffer): 5.6 µg/mL (≈ 21 µM)
2 | COc1ccc(/C=C\c2cc(OC)c(OC)c(OC)c2)cc1O [CA-4, combretastatin A-4, reference compound] | […] | 1.1 µg/mL (≈ 3.48 µM) |  |  |  |  |  |  |  |  |  |  |  |  |  | water solubility [3]: 1 µg/mL (≈ 3.16 µM)
3 | COc1ccc2nc(N(C=O)Cc3ccccn3)sc2c1 [Compound 13, N-(6-methoxybenzo[d]thiazol-2-yl)-N-(pyridin-2-ylmethyl)formamide] | 5 µM | 90 µg/mL (≈ 301 µM) | 9.31 µM | 0.423 µM | 0.327 µM | 0.321 µM | 0.221 µM | 0.254 µM | 0.331 µM | 0.315 µM | 0.557 µM | 0.195 µM | 0.54 µM |  |  | % TPI (bovine brain tubulin; compounds tested at 10 µM, with respect to the negative control): 80%; IC50 (tumor cell lines; Homo sapiens, MCF7, glioblastoma and MCF7 cells): ~0.2 µM; IC50 (tumor cell lines; all the cell lines): 0.3 to 0.5 µM
4 | COc1ccc2nc(NCc3ccncc3)sc2c1 [Compound 3, 6-methoxy-N-(pyridin-4-ylmethyl)benzo[d]thiazol-2-amine] | > 10 µM | 55 µg/mL (≈ 203 µM) | > 10 µM | 3.31 µM | 2.27 µM | 1.23 µM | 1.74 µM | 1.51 µM | 1.45 µM | 2.01 µM | 3.39 µM | 2.03 µM | 3.27 µM | ~1 µM | 2 to 3 µM | 
5 | COc1ccc2nc(NCc3cccnc3)sc2c1 [Compound 2, 6-methoxy-N-(pyridin-3-ylmethyl)benzo[d]thiazol-2-amine] | > 10 µM | 57 µg/mL (≈ 210 µM) | > 10 µM | 1.55 µM | 2.11 µM | 1.19 µM | 1.17 µM | 1.32 µM | 1.27 µM | 1.43 µM | 2.23 µM | 1.91 µM | 2.15 µM | ~1 µM | 2 to 3 µM | 
